Laboratory results from PubChem BioAssay AID651912 (NMMLSC, 2012).

Molecular target: Beta-2 adrenergic receptor (Homo sapiens) (UniProt P07550)
Test: ADRB2 activation measured by internalization – cell-based, FAP fluorogen, flow cytometry, powder set 5, dose response (AID 651912)
Details: AM2.2-beta2AR cells, 90 min

Sequence of Beta-2 adrenergic receptor (Homo sapiens) (P07550 whole entry, looked up): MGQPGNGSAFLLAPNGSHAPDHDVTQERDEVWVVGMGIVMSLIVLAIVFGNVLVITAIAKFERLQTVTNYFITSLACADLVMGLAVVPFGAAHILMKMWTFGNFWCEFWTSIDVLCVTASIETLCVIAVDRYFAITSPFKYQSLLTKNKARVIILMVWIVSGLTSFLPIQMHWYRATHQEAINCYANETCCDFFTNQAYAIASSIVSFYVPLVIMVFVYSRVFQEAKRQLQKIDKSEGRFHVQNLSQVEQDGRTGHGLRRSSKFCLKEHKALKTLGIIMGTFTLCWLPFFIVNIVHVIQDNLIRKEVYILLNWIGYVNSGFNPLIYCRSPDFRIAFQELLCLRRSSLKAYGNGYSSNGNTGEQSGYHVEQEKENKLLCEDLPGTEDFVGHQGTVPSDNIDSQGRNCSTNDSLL

EC50 [nM] | Structure (SMILES)
336 | CN(CC(=O)N1CCN(c2ccc(F)cc2)CC1)S(=O)(=O)c1ccc(Br)cc1
134 | CC1CCCCN1S(=O)(=O)c1ccc(NC(=O)c2cccnc2)cc1 (configuration not stated)
80.2 | CC(=O)Nc1ccc(S(=O)(=O)N2CCCCC2C)cc1 (configuration not stated)
4.8 | CCC(=O)Nc1ccc(S(=O)(=O)N2CCCCC2CC)cc1 (configuration not stated)
4030 | Cc1cccc(C(=O)Nc2ccc(S(=O)(=O)N3CCCCC3C)cc2)c1 (configuration not stated)
219 | O=C(C1CCCN1S(=O)(=O)c1ccc(Cl)cc1)N1CCN(c2ccccn2)CC1 (configuration not stated)
132 | CCC1CCCCN1S(=O)(=O)c1ccc(NC(C)=O)cc1 (configuration not stated)
